From publication PMC9329436, “Optimization of the 4-anilinoquin(az)oline scaffold as epidermal growth factor receptor (EGFR) inhibitors for chordoma utilizing a toxicology profiling assay platform” (Scientific Reports, 2022)
Values joined by “and” are separate entries in the source; they are usually repeats but may differ in a detail not shown here. Identical values can stand only once.

How the values were obtained:
HL60 cells = assay: AsedaSciences SYSTEMETRIC Cell Health Screen (flow cytometry toxicity profiling); settings: for CC: Cell Cycle score / CM: Cell morphology score / CMI: Cell membrane integrity score / GSH: Glutathione score / MMP: Mitochondrial membrane depolarization score / NMI1: Nuclear membrane integrity 1 score / NMI2: Nuclear membrane integrity 2 score / ROS: Reactive superoxide species score / CHI: Cell Health Index: HL60, 4 h, 5 nM–100 µM; for CC: Cell Cycle score / CM: Cell morphology score / CMI: Cell membrane integrity score / GSH: Glutathione score / MMP: Mitochondrial membrane depolarization score / NMI1: Nuclear membrane integrity 1 score / NMI2: Nuclear membrane integrity 2 score / ROS: Reactive superoxide species score: probability 0–1, n = 2; for CHI: Cell Health Index: probability (0–1) of high-risk class, n = 2; for Cell Health Toxcity Profile CC (DyeCycle Violet) / Cell Health Toxcity Profile CM (Cell morphology) / Cell Health Toxcity Profile CMI (Cell membrane integrity) / Cell Health Toxcity Profile GSH (Glutathione) / Cell Health Toxcity Profile MMP (Mitochondrial membrane depolarization) / Cell Health Toxcity Profile NMI1 (Nuclear membrane integrity 1) / Cell Health Toxcity Profile NMI2 (Nuclear membrane integrity 2) / Cell Health Toxcity Profile ROS (Reactive superoxide species) / Cell Health Toxcity Profile CHI: SYSTEMETRIC Cell Health Screen, assay n=2; for Cell Health Toxcity Profile CHI: classifier output
Procedure, shortened: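 HL60 cells (100,000 per well) exposed 4 h at 37 °C, 5% CO2 to 10-step 3× dilutions (5 nM–100 µM), in duplicate. Cells then stained with mitochondrial and cell-stress reporter dyes and read by ungated flow cytometry over twelve parameters. Cell Health Index and eight endpoint scores come from an ML classifier trained on 300 high/low-risk compounds.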

U-CH1 chordoma cell line = assay: Cell viability assay (alamarBlue, 72 h), U-CH1; format: cell-based, human
Procedure: (§1) Chordoma cell lines were cultured as described previously[10],[12],[33],[34]. Briefly, U-CH1 and U-CH2 cell lines were cultured in 4:1 IMDM:RPMI medium supplemented with 10% fetal bovine serum (FBS) and 1% penicillin/streptomycin in gel-coated flasks. […] CH22, UM-Chor1, U-CH12, and U-CH7 cell lines were cultured in RPMI medium supplemented with 10% FBS and 1% penicillin/streptomycin. The cell lines all undergo regular mycoplasma screening.
(§2) Cells were seeded in 384 well plates and were treated with test compound in quadruplicate 24 h after plating. Cell viability was assessed at 72 h using alamarBlue (ThermoFisher, USA). […] IC50 values were determined by four-parameter nonlinear regression analyses using GraphPad Prism™ version 8 software (San Diego, CA).

[1] = system: CH22 patient-derived chordoma cell line; assay: Cell viability assay (alamarBlue, 72 h), CH22; format: cell-based, human; settings: n = 4, 72 h
Procedure: as §1, §2

[2] = system: WS1 human fibroblast cell line; assay: Cell viability assay, WS1 toxicity control; format: cell-based; settings: n = 4, nonspecific toxicity control
Procedure: as §2

[3] = system: UM-Chor1 patient-derived chordoma cell line; assay: Cell viability assay (alamarBlue, 72 h), UM-Chor1; format: cell-based, human; settings: n = 4, 72 h
Procedure: as §1, §2

EGFR = EGFR (Homo sapiens, UniProt P00533); assay: ProQinase in-cell EGFR assay (EGFR phosphorylation in A431 cells); format: cell-based; design: This cell line endogenously expresses a high level of EGFR; endogenous in cells; host or cells: A431; settings: ProQinase in-cell EGFR assay, A431 cells, n = 1
Source text: In addition, we ran an EGFR in-cell target engagement assay, measuring in-cell EGFR phosphorylation, using the human epidermoid carcinoma cell line A431. This cell line endogenously expresses a high level of EGFR, and stimulation of these cells with human epidermal growth factor (EGF) results in receptor tyrosine autophosphorylation.

[4] = system: U-CH7 patient-derived chordoma cell line; assay: Cell viability assay (alamarBlue, 72 h), U-CH7; format: cell-based, human; settings: n = 4, 72 h
Procedure: as §1, §2

U-CH2 chordoma cell line = assay: Cell viability assay (alamarBlue, 72 h), U-CH2; format: cell-based, human
Procedure: as §1, §2

[5] = system: U-CH12 patient-derived chordoma cell line; assay: Cell viability assay (alamarBlue, 72 h), U-CH12; format: cell-based, human; settings: n = 4, 72 h
Procedure: as §1, §2

EGFR, sequence (P00533 25-1210): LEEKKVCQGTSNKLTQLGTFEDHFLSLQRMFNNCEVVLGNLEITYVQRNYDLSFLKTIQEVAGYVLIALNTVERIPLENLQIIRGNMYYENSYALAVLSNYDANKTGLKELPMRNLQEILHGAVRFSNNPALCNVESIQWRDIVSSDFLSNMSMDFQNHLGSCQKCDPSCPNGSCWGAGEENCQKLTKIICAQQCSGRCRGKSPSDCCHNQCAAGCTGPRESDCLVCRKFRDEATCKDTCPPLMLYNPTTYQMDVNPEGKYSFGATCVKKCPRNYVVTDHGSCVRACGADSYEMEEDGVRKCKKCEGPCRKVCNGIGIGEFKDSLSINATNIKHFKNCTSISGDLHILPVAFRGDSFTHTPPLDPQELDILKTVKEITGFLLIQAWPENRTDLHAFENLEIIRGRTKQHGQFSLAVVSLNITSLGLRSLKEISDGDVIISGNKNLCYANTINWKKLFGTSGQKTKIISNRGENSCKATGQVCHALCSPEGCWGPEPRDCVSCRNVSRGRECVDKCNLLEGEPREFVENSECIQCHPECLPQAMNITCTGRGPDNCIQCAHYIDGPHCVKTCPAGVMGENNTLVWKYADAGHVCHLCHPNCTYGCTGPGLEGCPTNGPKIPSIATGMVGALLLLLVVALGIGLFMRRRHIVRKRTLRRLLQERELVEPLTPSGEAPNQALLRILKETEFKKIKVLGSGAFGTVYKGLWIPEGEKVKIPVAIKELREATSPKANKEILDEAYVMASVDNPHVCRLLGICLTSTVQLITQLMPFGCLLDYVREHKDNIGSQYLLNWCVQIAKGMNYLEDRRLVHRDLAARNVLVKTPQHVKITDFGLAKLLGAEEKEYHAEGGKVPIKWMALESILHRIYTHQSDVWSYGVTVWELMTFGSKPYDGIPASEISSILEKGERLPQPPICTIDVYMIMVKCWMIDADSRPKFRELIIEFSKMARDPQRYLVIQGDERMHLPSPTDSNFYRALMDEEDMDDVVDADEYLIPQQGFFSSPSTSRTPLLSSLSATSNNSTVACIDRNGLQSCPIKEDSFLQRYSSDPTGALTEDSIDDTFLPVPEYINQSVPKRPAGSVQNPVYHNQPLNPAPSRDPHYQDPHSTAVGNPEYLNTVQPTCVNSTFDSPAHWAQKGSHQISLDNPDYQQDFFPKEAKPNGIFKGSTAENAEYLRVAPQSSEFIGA

| SMILES | CC: Cell Cycle score (HL60 cells) | CM: Cell morphology score (HL60 cells) | CMI: Cell membrane integrity score (HL60 cells) | GSH: Glutathione score (HL60 cells) | MMP: Mitochondrial membrane depolarization score (HL60 cells) | NMI1: Nuclear membrane integrity 1 score (HL60 cells) | NMI2: Nuclear membrane integrity 2 score (HL60 cells) | ROS: Reactive superoxide species score (HL60 cells) | CHI: Cell Health Index (HL60 cells) | IC50 (U-CH1 chordoma cell line; n = 4, 72 h) | IC50 (U-CH2 chordoma cell line; n = 4, 72 h) | Cell Health Toxcity Profile CC (DyeCycle Violet) (HL60 cells) | Cell Health Toxcity Profile CM (Cell morphology) (HL60 cells) | Cell Health Toxcity Profile CMI (Cell membrane integrity) (HL60 cells) | Cell Health Toxcity Profile GSH (Glutathione) (HL60 cells) | Cell Health Toxcity Profile MMP (Mitochondrial membrane depolarization) (HL60 cells) | Cell Health Toxcity Profile NMI1 (Nuclear membrane integrity 1) (HL60 cells) | Cell Health Toxcity Profile NMI2 (Nuclear membrane integrity 2) (HL60 cells) | Cell Health Toxcity Profile ROS (Reactive superoxide species) (HL60 cells) | Cell Health Toxcity Profile CHI (HL60 cells) | other results |
| --- | --- | --- | --- | --- | --- | --- | --- | --- | --- | --- | --- | --- | --- | --- | --- | --- | --- | --- | --- | --- | --- |
| C#Cc1ccc(F)c(Nc2ncnc3cc(OC)c(OC)cc23)c1 [Compound 42] | 0.67 | 0.31 | 0.78 | 0.25 | 0.89 | 0.13 | 0.85 | 0.63 | 0.48 | 6.7 µM | 20 µM | – | – | – | – | – | – | – | – | – | IC50 [1]: 4.2 µM; IC50 [2]: 20 µM; IC50 [3]: > 100 µM; IC50 (EGFR): 0.29 µM; IC50 [4]: > 100 µM; IC50 [5]: > 100 µM |
| C#Cc1cc(Nc2ncnc3ccc(I)cc23)ccc1F [Compound 36] | 0.038 | 0.011 | 0.31 | 0.068 | 0.13 | 0.24 | 0.048 | 0.35 | 0.27 | 2.7 µM | > 100 µM | – | – | – | – | – | – | – | – | – | IC50 [1]: > 100 µM; IC50 [2]: > 100 µM; IC50 [3]: > 100 µM; IC50 (EGFR): 2.7 µM; IC50 [4]: > 100 µM; IC50 [5]: > 100 µM |
| C#Cc1cccc(Nc2c(C#N)cnc3cc(I)ccc23)c1 [Compound 32] | 0.95 | 1.00 | 1.00 | 0.98 | 0.99 | 0.95 | 0.94 | 0.99 | 0.81 | > 100 µM | > 100 µM | 0.95 | 1.00 | 1.00 | 0.98 | 0.99 | 0.95 | 0.94 | 0.99 | 0.81 | IC50 [1]: > 100 µM; IC50 [2]: > 100 µM; IC50 [3]: > 100 µM; IC50 (EGFR): 2.7 µM; IC50 [4]: > 100 µM; IC50 [5]: > 100 µM |
| C#Cc1cccc(Nc2ncnc3cc(OCCOC)c(OCCOC)cc23)c1 [Erlotinib, reference compound] | – | 0.77 | 0.50 and 0.74 | 0.63 and 0.81 | – | – | – | – | – | – | – | – | – | – | – | – | – | – | – | – | IC50 ([1]; Homo sapiens): > 100 µM; IC50 ([2]; Homo sapiens, Fibroblast): 19 µM; IC50 ([3]; Homo sapiens): 19 µM; IC50 ([4]; Homo sapiens): 95 µM; IC50 ([5]; Homo sapiens): 68 µM |
| C#Cc1cccc(Nc2c(C#N)cnc3cc(OC)ccc23)c1 [Compound 33] | – | – | – | – | – | – | – | – | – | 4.1 µM | 40 µM | 0.81 | 0.97 | 0.90 | 0.78 | 0.22 | 0.20 | 0.16 | 0.68 | 0.44 | – |
| C#Cc1cccc(Nc2ncnc3ccc(C#N)cc23)c1 [Compound 18] | 0.27 | 0.0026 | 0.0079 | 0.023 | 0.11 | 0.33 | 0.094 | 0.042 | 0.18 | 74 µM | > 100 µM | – | – | – | – | – | – | – | – | – | – |
| C#Cc1cccc(Nc2ncnc3cc(F)c(F)cc23)c1 [Compound 6, N-(3-ethynylphenyl)-6,7-difluoroquinazolin-4-amine] | – | – | – | – | – | – | – | – | – | – | – | – | – | – | – | – | – | – | – | – | IC50 (EGFR): 12 µM |
| C#Cc1cccc(Nc2ncnc3cc(F)ccc23)c1 [Compound 12] | 0.59 | 0.058 | 0.045 | 0.004 | 0.74 | 0.21 | 0.19 | 0.77 | 0.40 | 41 µM | > 100 µM | – | – | – | – | – | – | – | – | – | – |
| C#Cc1cccc(Nc2c(C#N)cnc3ccc(I)cc23)c1 [Compound 28, 4-((3-ethynylphenyl)amino)-6-iodoquinoline-3-carbonitrile] | 0.91 | 0.88 | 1.00 | 0.93 | 0.99 | 0.74 | 0.81 | 0.89 | 0.70 | – | – | 0.91 | 0.88 | 1.00 | 0.93 | 0.99 | 0.74 | 0.81 | 0.89 | 0.70 | IC50 (U-CH1 chordoma cell line; Homo sapiens, UCH1, n = 4, 72 h): 8.7 µM; IC50 ([1]; Homo sapiens): 8.4 µM; IC50 ([3]; Homo sapiens): 6.9 µM; IC50 (EGFR): 2.5 µM; IC50 ([4]; Homo sapiens): > 100 µM; IC50 (U-CH2 chordoma cell line; Homo sapiens, UCH2, n = 4, 72 h): 14 µM; IC50 ([5]; Homo sapiens): 7.7 µM |
| C#Cc1cccc(Nc2c(C#N)cnc3cc(Br)ccc23)c1 [Compound 31] | – | – | – | – | – | – | – | – | – | > 100 µM | > 100 µM | 0.92 | 0.95 | 0.88 | 0.92 | 0.84 | 0.45 | 0.34 | 0.87 | 0.59 | – |
| C#Cc1cccc(Nc2c(C#N)cnc3ccc(OC)cc23)c1 [Compound 23] | – | – | – | – | – | – | – | – | – | 20 µM | > 100 µM | 0.74 | 0.020 | 0.0039 | 0.0085 | 0.28 | 0.30 | 0.11 | 0.056 | 0.26 | – |
| C#Cc1cccc(Nc2c(C#N)cnc3ccc(Br)cc23)c1 [Compound 27] | – | – | – | – | – | – | – | – | – | 22 µM | 30 µM | 0.98 | 1.00 | 1.00 | 0.98 | 0.96 | 0.32 | 0.98 | 1.00 | 0.75 | – |
| C#Cc1cccc(Nc2ncnc3ccc(S(C)(=O)=O)cc23)c1 [Compound 19] | 0.33 | 0.0013 | 0.0057 | 0.044 | 0.21 | 0.36 | 0.089 | 0.055 | 0.22 | 45 µM | 52 µM | – | – | – | – | – | – | – | – | – | – |
| C#Cc1cccc(Nc2c(C#N)cnc3ccc(S(C)(=O)=O)cc23)c1 [Compound 29] | – | – | – | – | – | – | – | – | – | 92 µM | 52 µM | 0.071 | 0.003 | 0.037 | 0.039 | 0.021 | 0.18 | 0.009 | 0.046 | 0.16 | – |
